Results on 25 compounds are retold here after US8329737B2, “Benzimidazoles as selective kinase inhibitors” (YM Biosciences Australia PTY Ltd, priority 2004, dated 2012).

Like-named read-outs stand apart in the source and are kept apart here. Some results are limits rather than exact numbers.

For one test, the target named is T1, Jak3 (Homo sapiens, UniProt P52333).
T1 construct: The kinase domain of humanJAK3 was amplified from U937mRNA; His tag (from the pFastBac HTb vector; purified on nickel chelate); made in house; host or cells: baculovirus; Sf9 for virus, High Five insect cells for production
The experiment in a line: JAK kinase assay (ELISA or Alphascreen), JAK3 kinase domain. The test is classed as biochemical. The conditions noted are these: for IC50: read-out: apparent “IC50”. The method, then: (§1) For screening purposes, compounds were diluted in 96 well plates at a concentration of 20 μM. Plates were warmed at 37° C. for 30 minutes before assay.
The kinase domain of humanJAK3 was amplified from U937mRNA using the polymerase chain reaction with the following primers: […]
JAK3 PCR products were cloned into the pFastBac HTb expression vector (Gibco®) via the Xho I and Kpn I sites. The JAK3 plasmid was then transformed into competent DH10Bac cells (Gibco®), and the recombinant baculovirus produced prepared for transfection into Sf9 insect cells.
Baculovirus preparations from each of the JAK family members were infected into five litres of High Five cells (Invitrogen) grown in High Five serum free medium (Invitrogen) to a cell density of approximately 1-2×10^6 cells/ml. Cells are infected with virus at a MOI of 0.8-3.0. Cells were harvested and lysed. JAK kinase domains were purified by affinity chromatography on a Probond (Invitrogen) nickel chelate affinity column.
Kinase assays were performed in a 96 well capture-based ELISA assay or in 384 well Optiplates (Packard) using an Alphascreen Protein Tyrosine Kinase kit. In either case using approximately 1.5 μg of affinity purified PTK domain in the presence of 50 mM HEPES, pH 7.5, 10 mM MgCl2, 150 mM NaCl and 10 μM-1 mM ATP. The biotinylated substrate biotin-EGPWLEEEEEAYGWMDF-NH2 (SEQ ID NO:9) (final concentration 5 μM) was used as substrate. In the ELISA assay tyrosine phosphorylation was quantitated following transfer to an avidin coated ELISA plate using peroxidase-linked anti-phospho-tyrosine antibody PY20. In the Alphascreen assay, Alphascreen phosphotyrosine acceptor beads followed by streptavidin donor beads were added under subdued light. The ELISA plates were read on a BMG Fluorostar, the Alphascreen plates were read on a Packard Fusion Alpha. […] Inhibitors were added in aqueous DMSO, with DMSO concentrations never exceeding 1%.
For orientation: ELISA stands for enzyme-linked immunosorbent assay.

The next test concerns the target T2, Jak2 (Homo sapiens, UniProt O60674).
T2 construct: The kinase domain of humanJAK2 was amplified from U937mRNA; His tag (from the pFastBac HTc vector; purified on nickel chelate); made in house; host or cells: baculovirus; Sf9 for virus, High Five insect cells for production
As to the kind of experiment: JAK kinase assay (ELISA or Alphascreen), JAK2 kinase domain. It counts as biochemical. The following applies: capacity to inhibit 50% of JAK activity at 20 μM, standard conditions. As to the method:
as §1
The kinase domain of humanJAK2 was amplified from U937mRNA using the polymerase chain reaction with the following primers: […]
JAK2 PCR products were cloned into the pFastBac HTc expression vector (Gibco®) via the Sal I and Not I sites. The JAK2 plasmid was then transformed into competent DH10Bac cells (Gibco®), and the recombinant baculovirus produced prepared for transfection into Sf9 insect cells.
Baculovirus preparations from each of the JAK family members were infected into five litres of High Five cells (Invitrogen) grown in High Five serum free medium (Invitrogen) to a cell density of approximately 1-2×10^6 cells/ml. Cells are infected with virus at a MOI of 0.8-3.0. Cells were harvested and lysed. […]
Kinase assays were performed in a 96 well capture-based ELISA assay or in 384 well Optiplates (Packard) using an Alphascreen Protein Tyrosine Kinase kit. […] In the ELISA assay tyrosine phosphorylation was quantitated following transfer to an avidin coated ELISA plate using peroxidase-linked anti-phospho-tyrosine antibody PY20. […] The ELISA plates were read on a BMG Fluorostar, the Alphascreen plates were read on a Packard Fusion Alpha. […]

The mark [1] stands for this setting: capacity to inhibit 50% of JAK activity at 20 μM, standard conditions.

T1 sequence (P52333 822-1111 limits assumed): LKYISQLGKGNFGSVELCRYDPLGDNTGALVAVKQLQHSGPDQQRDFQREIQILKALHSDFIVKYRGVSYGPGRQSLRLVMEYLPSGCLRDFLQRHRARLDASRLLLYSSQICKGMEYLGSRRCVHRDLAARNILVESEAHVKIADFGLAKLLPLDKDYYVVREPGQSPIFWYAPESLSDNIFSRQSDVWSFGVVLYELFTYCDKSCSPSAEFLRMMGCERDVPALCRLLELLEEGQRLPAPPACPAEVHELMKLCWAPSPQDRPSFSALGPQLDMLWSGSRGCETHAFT
T2 sequence (O60674 849-1124 limits assumed): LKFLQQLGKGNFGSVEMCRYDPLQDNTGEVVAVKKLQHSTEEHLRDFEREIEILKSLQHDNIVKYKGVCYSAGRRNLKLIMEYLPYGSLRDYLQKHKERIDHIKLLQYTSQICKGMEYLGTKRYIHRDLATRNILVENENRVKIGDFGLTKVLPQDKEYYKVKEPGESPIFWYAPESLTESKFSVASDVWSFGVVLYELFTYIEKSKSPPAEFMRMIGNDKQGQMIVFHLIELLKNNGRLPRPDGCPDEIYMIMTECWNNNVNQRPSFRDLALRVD

Turning to `C=CC(=O)Nc1ccc2ncn(-c3cncc(N[C@@H](C)CC)n3)c2c1`, at Jak3 (setting [1]), the inhibition (in general, the drop in the measured response relative to a control, in per cent) at 20 µM is > 50%.
Regarding `C#CC(=O)Nc1ccc2ncn(-c3cncc(NC(C)(C)C)n3)c2c1`, the inhibition at 20 µM at Jak3 (setting [1]) is > 50%.
The same measure, in the same setting: then `C=CC(=O)Nc1ccc2ncn(-c3cncc(N[C@H](C)CC)n3)c2c1`, with > 50%.
As for `C=CC(=O)Nc1ccc2ncn(-c3cncc(NCC4CC4)n3)c2c1`, the inhibition at 20 µM against Jak3 (setting [1]) was > 50%.
`C=C(C)C(=O)Nc1ccc2ncn(-c3cncc(NC(C)(C)C)n3)c2c1`: the inhibition at 20 µM on Jak3 (setting [1]) is > 50%.
Regarding `C=CC(=O)Nc1ccc2ncn(-c3cncc(-c4ccncc4)n3)c2c1`, on Jak3 (setting [1]), the inhibition at 20 µM is > 50%.
Same read-out and setting: the value for `C=CC(=O)Nc1ccc2ncn(-c3cncc(N(C)C)n3)c2c1` was > 50%; that for `C=CC(=O)Nc1ccc2ncn(-c3cncc(-c4cccnc4)n3)c2c1` was > 50%; that for `C=CC(=O)Nc1ccc2ncn(-c3cncc(N4CCCC4)n3)c2c1` was > 50%.
Consider `C=CC(=O)Nc1ccc2ncn(-c3cncc(-c4ccc(C)o4)n3)c2c1`, for which, at Jak3 (setting [1]), the inhibition at 20 µM is > 50%.
Same read-out and setting: then `C=CC(=O)Nc1ccc2ncn(-c3cncc(N4CCCCC4)n3)c2c1`, with > 50%; and `C=CC(=O)Nc1ccc2ncn(-c3cncc(N(C)C(C)C)n3)c2c1`, with > 50%.
With `C=CC(=O)Nc1ccc2ncn(-c3cncc(NC(C)(C)C)n3)c2c1` [Example 20, N-{1-[6-(tert-Butylamino)pyrazin-2-yl]-1-H-benzimidazol-6-yl}acrylamide], the IC50 (in general, the concentration needed to halve the response being measured) on Jak3 (after 20 minute incubation with enzyme (prior to addition of ATP)) was ~40 nM; on Jak3 (after 90 min pre-incubation), 7 nM.
For `C=CC(=O)Nc1ccc2ncn(-c3cncc(N[C@@H](C)c4ccccc4)n3)c2c1` [N-[1-(6-([(1S)-1-Phenylethyl]amino]pyrazin-2-yl)-1H-benzimidazol-6-yl)acrylamide], the Jak2 result at Jak2 was “+ (Compounds that exhibited a capacity to inhibit 50% of JAK activity at a concentration of 20 μM (measured under standard conditions, see Methods), are designated as “+”)”. Besides, on Jak3 (setting [1]), the inhibition at 20 µM is > 50%.
In the case of `C=CC(=O)Nc1ccc2ncn(-c3cncc(Nc4ccccc4)n3)c2c1` [N-[1-(6-Anilinopyrazin-2-yl)-1H-benzimidazol-6-yl]acrylamide], the Jak3 result at Jak3 (setting [1]) is listed as “+ (Compounds that exhibited a capacity to inhibit 50% of JAK activity at a concentration of 20 μM (measured under standard conditions, see Methods), are designated as “+”)”.
Turning to `C=CC(=O)Nc1ccc2ncn(-c3cncc(Cl)n3)c2c1` [N-[1-(6-Chloropyrazin-2-yl)-1H-benzimidazol-6-yl]acrylamide], on Jak3 (setting [1]), the inhibition at 20 µM is > 50%.
On the same count and under the same terms, the value for `C=CC(=O)Nc1ccc2ncn(-c3cncc(-c4ccccc4)n3)c2c1` [N-[1-(6-Phenylpyrazin-2-yl)-1H-benzimidazol-6-yl]acrylamide] was > 50%.
Regarding `C=CC(=O)Nc1ccc2ncn(-c3cncc(-c4ccsc4)n3)c2c1` [N-[1-(6-Thien-3-ylpyrazin-2-yl)-1H-benzimidazol-6-yl]acrylamide], the inhibition at 20 µM against Jak3 (setting [1]) is > 50%.
`C=CC(=O)Nc1ccc2ncn(-c3cncc(N4CCOCC4)n3)c2c1` [N-[1-(6-morpholin-4-ylpyrazin-2-yl)-1H-benzimidazol-6-yl]acrylamide]: the inhibition at 20 µM on Jak3 (setting [1]) is > 50%.
Same read-out and setting: then `C=CC(=O)Nc1ccc2ncn(-c3cncc(-c4cn[nH]c4)n3)c2c1` [N-{1-[6-(1H-Pyrazol-4-yl)pyrazin-2-yl]-1H-benzimidazol-6-yl}acrylamide], with > 50%.
Same read-out and setting: then `C=CC(=O)Nc1ccc2ncn(-c3cncc(-c4ccc(F)c(Cl)c4)n3)c2c1` [N-{1-[6-(3-Chloro-4-fluorophenyl)pyrazin-2-yl]-1H-benzimidazol-6-yl}acrylamide], with > 50%; and `C=CC(=O)Nc1ccc2ncn(-c3cncc(N4CCN(C)CC4)n3)c2c1` [N-{1-[6-(4-Methylpiperazin-1-yl)pyrazin-2-yl]-1H-benzimidazol-6-yl}acrylamide], with > 50%; and `C=CC(=O)Nc1ccc2ncn(-c3cncc(NC(C)C)n3)c2c1` [N-{1-[6-(Isopropylamino)pyrazin-2-yl]-1H-benzimidazol-6-yl]acrylamide], with > 50%.
In the case of `C=CC(=O)Nc1ccc2ncn(-c3cncc(NC)n3)c2c1` [N-{1-[6-(Methylamino)pyrazin-2-yl]-1H-benzimidazol-6-yl}acrylamide], the inhibition at 20 µM against Jak3 (setting [1]) was > 50%.
On the same count and under the same terms, the value for `C=CC(=O)Nc1ccc2ncn(-c3cncc(NC(C)(C)C)n3)c2c1` [drawing 98] was > 50%.
